The target of this experiment is Prothrombin (Homo sapiens) (UniProt P00734). Put plainly: Inhibitory activity against human thrombin.

For `c1ccc2c(c1)nc(-c1ccc(OCCN3CCCC3)cc1)n2Cc1ccc(OCCN2CCCC2)cc1`, the K ass is 332000 l M-1.
`COc1cc(Cc2c(-c3ccc(OCCN4CCCC4)cc3)sc3cc(O)ccc23)ccc1CN1CCCC1`: the K ass was 8.15e+08 l M-1.
For `c1ccc2c(Cc3ccc(OCCN4CCCC4)cc3)c(-c3ccc(OCCN4CCCC4)cc3)[nH]c2c1`, the K ass was 42000 l M-1.
Under `COc1cc(Cn2c(-c3ccc(OCCN4CCCC4)cc3)cc3ccccc32)ccc1CN1CCCC1` stands 1.97e+08 l M-1; under `COC(=O)CCCOc1ccc(-c2sc3ccccc3c2Cc2ccc(CN3CCCC3)c(OC)c2)cc1`, 7.68e+06 l M-1; under `COc1cc(Cc2c(-c3ccc(OCCCC(=O)O)cc3)sc3ccccc23)ccc1CN1CCCC1`, 3.91e+06 l M-1.
On to `COc1cc(Cn2c(-c3ccc(OCCN4CCCC4)cc3)cc3ccncc32)ccc1C(=O)N1CCCC1`, for which the K ass is 5.97e+07 l M-1.
Turning to `c1ccc2c(c1)cc(-c1ccc(OCCN3CCCC3)cc1)n2Cc1ccc(OCCN2CCCC2)cc1`, the K ass was 6.27e+06 l M-1.
Turning to `COc1cc(Cc2c(-c3ccc(OCCN4CCCC4)cc3)sc3ccccc23)ccc1CN1CCCC1`, the K ass was 1.26e+08 l M-1.
As to `c1ccc2c(Cc3ccc(OCCN4CCCC4)cc3)c(-c3ccc(OCCN4CCCC4)cc3)oc2c1`, the K ass is 974000 l M-1.
Take `COc1cc(Cn2c(-c3ccc(OCCn4cccn4)cc3)nc3ccccc32)ccc1CN1CCCC1`: the K ass was 1.46e+06 l M-1.
In the case of `COc1cc(Cn2c(-c3ccc(OCCN4CCCC4)cc3)cc3cnccc32)ccc1CN1CCCC1` it was 7.39e+07 l M-1.
Consider `COc1cc(Cn2c(-c3ccc(OCCN4CCCC4)cc3)nc3cc(O)ccc32)ccc1NCc1ccccc1`, for which the K ass was 1.65e+07 l M-1.
Under `COc1cc(Cn2c(-c3ccc(OCCN4CCCC4)cc3)cc3cnccc32)ccc1C(=O)N1CCCC1` stands 8.37e+07 l M-1; under `COc1cc(Cn2c(-c3ccc(OCCN4CCCC4=O)cc3)nc3ccccc32)ccc1CN1CCCC1`, 1.5e+07 l M-1; under `COc1cc(Cc2c(-c3ccc(OCCCCO)cc3)sc3ccccc23)ccc1CN1CCCC1`, 1.49e+07 l M-1.
Consider `COc1cc(Cn2c(-c3ccc(OCCN4CCCC4)cc3)nc3cc(O)ccc32)ccc1Cn1cccn1`, for which the K ass is 1.2e+07 l M-1.
`COc1cc(Cn2c(-c3ccc(OCCCC(=O)O)cc3)cc3ccccc32)ccc1CN1CCCC1`: the K ass was 6.41e+06 l M-1.
In the case of `COc1cc(Cn2c(-c3ccc(OCCN4CCCC4)cc3)nc3cc(CN)ccc32)ccc1CN1CCCC1` it was 4.49e+06 l M-1; in that of `COC(=O)CCCOc1ccc(-c2cc3ccccc3n2Cc2ccc(CN3CCCC3)c(OC)c2)cc1`, 2.47e+07 l M-1; in that of `COc1cc(Cn2c(-c3ccc(OCCN4CCCC4)cc3)nc3cc(O)ccc32)ccc1CN1CCCC1`, 9.72e+06 l M-1.
As for `COc1cc(Cn2c(-c3ccc(OCCCCO)cc3)cc3ccccc32)ccc1CN1CCCC1`, the K ass is 3.37e+07 l M-1.
As to `O=C(c1ccc(OCCN2CCCC2)cc1)c1c(-c2ccc(OCCN3CCCC3)cc2)sc2ccccc12`, the K ass is 410000 l M-1.
Consider `COc1cc(Cn2c(-c3ccc(OCCN4CCCC4)cc3)nc3cc(CO)ccc32)ccc1CN1CCCC1`, for which the K ass was 1.93e+06 l M-1.
Regarding `COc1cc(Cn2c(-c3ccc(OCCN4CCCC4)cc3)nc3ccccc32)ccc1CN1CCCC1`, the K ass is 1.19e+07 l M-1.
Under `COc1cc(Cn2c(-c3ccc(OCCN4CCCC4)cc3)nc3cc(O)ccc32)ccc1Cn1ccnn1` stands 1.02e+07 l M-1.
For the compound `COc1cc(Cn2c(-c3ccc(OCCN4CCCC4)cc3)nc3cc(O)ccc32)ccc1Cn1ccnc1`, the K ass was 9.6e+06 l M-1.

The values are drawn from ChEMBL document CHEMBL1132782.
